Where two headings read alike, the source gives them in different places. Square brackets hold non-standard residues; d marks the D form. Peptide text beside a SMILES is read from it. * marks the point of attachment. Propanoyl(3-(3-pyridyl)) = O=C(CCc1cccnc1)*; Arg(Me) = CNC(=N)NCCC[C@H](N)C(=O)O; d4Pal = N[C@H](Cc1ccncc1)C(=O)O; azaGly = NNC(=O)O
How the values were obtained:
[1] = tested on: hOT7T175-expressed CHO cells; format: cell-based
Experimental: Assay for Cell Growth Inhibition Activity in hOT7T175-Expressed Cho Cells hOT7T175-Expressed CHO cells (hereinafter hOT7T175) were cultured in DMEM supplemented with 10% dialyzed FBS (hereinafter 10% dFBS/DMEM), which was used for the following assay. The hOT7T175 was suspended in 10% dFBS/DMEM at 10,000 cells/ml. The cells were plated on a 96 well plate at 100 μL each/well (1,000 cells/well), followed by culturing overnight at 37° C. in a 5% CO2 incubator. On the following day, the medium was removed and 90 μL of 10% dFBS/DMEM supplemented with 0.5% BSA (hereinafter, 0.5% BSA/10% dFBS/DMEM) was added. […] After 10 μL of Cell Counting Kit-8 solution (Dojin Chemical Laboratory) was added to each well, incubation was performed at 37° C. in a 5% CO2 incubator for 4 hours and absorbance was measured at 450 nm.

[2] = tested on: human colonic carcinoma-derived cell line SW620; assay: Tumor growth inhibition activity in tumor-bearing mice with SW620; format: in vivo; conditions: for tumor growth inhibition (tumor size) compared to the vehicle group: SW620 tumor-bearing BALB/cAnN-nu mice, s.c. osmotic pump
Experimental: The abscissa denotes the number of days after injection. The bar on the abscissa designates a dosing period. The ordinate denotes a tumor size (mm^3).
Evaluation of Tumor Growth Inhibition Activity
On the following day, human colonic carcinoma-derived cell line SW620 (ATCC) was dissolved in 20 mM phosphate buffered saline (pH 7.2)(PBS) containing 200 μL of 0.15M NaCl at a density of 2×10^6 cells. The resulting solution was subcutaneously injected into the left flank of the mice above. The day when the cells were injected was made Day 0. Tumor was measured with an electronic caliper every other or 2 other days during Days 4 to 13 from the cell administration, and tumor size was calculated by the following equation: […].

rats = assay: Effect of metastin derivatives on blood glucose level and blood glucagon level; format: in vivo; conditions: for blood glucose level: i.v. 80 nmol/kg (FIG. 10); for blood glucagon level: i.v. 80 nmol/kg (FIG. 11)
From the text: The value indicates (mean±SE) (n=5). The symbol * designates that the P-value is 0.05 or less, when compared to the saline group and the symbol ** designates that the P-value is 0.01 or less, when compared to the saline group.
In the figure, the symbols, open circle, closed circle and closed triangledesignate the blood glucagon level in the saline group and the group receiving 80 nmol/kg KiSS1-305 (Compound No. 305), the group receiving 80 nmol/kg KiSS1-322 (Compound No. 322), respectively. The value indicates (mean±SE) (n=5). The symbol * designates that the P-value is 0.05 or less, when compared to the saline group.
An operation was performed in free moving mature Wistar male rats (weighing […] at the time of operation) in a manner similar to TEST EXAMPLE 1 to collect blood. After the operation, the animal was maintained overnight. […] To prevent blood clotting, 3 μl of 300 KIU/ml aprotinin solution containing 3 mg/ml EDTA had previously been filled in the syringe. […] Blood was collected from the jugular vein by 300 μl each 2, 5, 15, 30, 45 and 60 minutes starting from the intravenous injection. The collected blood was centrifuged (13,000 rpm, 5 minutes) with a high speed refrigerated centrifuge (MR-150, Tomy Seiko Co., Ltd.) to recover the supernatant (plasma). Glucose level in blood was measured using Fuji Drychem 3500 (FUJI FILM) and glucagon level in blood was measured using a glucagon kit “Daiichi” (Daiichi Radioisotope Laboratories Ltd.), as in TEST EXAMPLE 1 or 2.

in vitro = conditions: female, Balb/c, mouse, serum
Experimental: Blood was drawn from Balb/c mice (female) of 8 weeks old, settled at 37° C. for 30 minutes and centrifuged at 13000 rpm for 10 minutes to give the serum as the supernatant. The serum thus obtained was frozen-stored at −80° C.
The stability test was performed by addition of 5 nmol of Compound (5 μL of aqueous solution) to 45 μL of serum and then settlement of the mixture at 37° C. The settlement was made at 3 points of time, including 2, 10 and 30 minutes. The sample after the settlement was boiled for 3 minutes and cooled on an ice bath. After 200 μL of acetonitrile/water (3/1) was added to the sample, the mixture was ultrasonicated for 5 minutes and then centrifuged at 5000 rpm for 1 minute. After 150 μL of the supernatant was diluted with 250 μL of distilled water, insoluble matters were removed by filtration through a filter having a pore size of 0.45 μm and 200 μL of the filtrate was applied on HPLC (220 nm) to determine the peak area of Compound. A ratio of the peak area to the area when Compound was treated for 0 minute under the same conditions was calculated as a mean value in 4 respective runs to determine the residual ratio. Next, by taking the calculated residual ratio on the ordinate and the time on the abscissa, a graph was prepared and approximated by an exponential function.
The preparative HPLC used was the LC-VP series manufactured by Shimadzu Corporation and Wakosil-II 5C18 HG (4.6 mm×100 mm) manufactured by Wako Pure Chemical Industries, Ltd. was used as the column. Eluant A (0.1% TFA-containing water) and eluant B (0.1% TFA-containing acetonitrile) were used as eluants. Analysis was performed by linear density gradient elution (25 minutes) at a flow rate of 1.0 ml/min. using eluants A/B: 100/0-0/50.

hOT7T175 = hOT7T175 (Homo sapiens, UniProt Q969F8, L364H); assay: hOT7T175 receptor binding activity: binding inhibition of Cy-5-labeled metastin (40-54) on hOT7T175-expressed CHO cells; design: expressed in transfected cells; host or cells: CHO cells
hOT7T175, sequence (Q969F8 whole entry L364H): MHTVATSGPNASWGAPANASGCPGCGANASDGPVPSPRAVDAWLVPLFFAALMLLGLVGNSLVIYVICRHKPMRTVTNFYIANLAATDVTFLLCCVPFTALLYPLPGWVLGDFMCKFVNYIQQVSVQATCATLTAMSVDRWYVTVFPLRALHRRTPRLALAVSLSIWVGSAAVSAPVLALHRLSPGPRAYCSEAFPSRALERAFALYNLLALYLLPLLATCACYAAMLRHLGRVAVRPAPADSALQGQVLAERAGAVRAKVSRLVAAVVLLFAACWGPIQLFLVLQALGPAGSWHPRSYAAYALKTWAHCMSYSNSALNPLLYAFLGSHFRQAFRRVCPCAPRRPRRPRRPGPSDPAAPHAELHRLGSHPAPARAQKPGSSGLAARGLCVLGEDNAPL

Row | SMILES | IC50 ([1]; hOT7T175-expressed CHO cells, 3 days culture, Cell Counting Kit-8, read-out: IC50 (M), cell growth inhibition activity) [M] | tumor growth inhibition (tumor size) compared to the vehicle group ([2]; 2.4 nmol/day/mouse×14 days) | tumor growth inhibition (tumor size) compared to the vehicle group ([2]; 24 nmol/day/mouse×14 days) | effect of tumor growth inhibition relative to Metastin ([2]; SW620 tumor-bearing mice, in vivo) [times] | blood glucose level (rats) | blood glucagon level (rats) | half-life at 100 µM (in vitro) [h] | IC50 [1] [M] | tumor growth inhibition compared with the Metastin group ([2]; 24 nmol/day/mouse×14 days, Day 11) | IC50 (hOT7T175) [nM]
1 | CNC(=N)NCCC[C@H](NC(=O)[C@H](CC(C)C)NC(=O)NNC(=O)[C@H](Cc1ccccc1)NC(=O)[C@H](CO)NC(=O)[C@H](CC(N)=O)NC(=O)[C@@H](Cc1ccncc1)NC(=O)[C@H](N)Cc1ccc(O)cc1)C(=O)N[C@@H](Cc1ccccc1)C(N)=O [Compound No. 305, D-Tyr-D-Pya(4)-Asn-Ser-Phe-AzaGly-Leu-Arg(Me)-Phe-NH2] (H-[dY][d4Pal]NSF[azaGly]L[Arg(Me)]F-NH2) | 8.94e-09 | significant tumor growth inhibition activity from Days 5 to 11 | significant effect of tumor growth inhibition from Days 5 to 9 and on Day 11 | 10 | increase in the blood glucose level | increase in the blood glucagon level | 1.11 | – | – | –
2 | CNC(=N)NCCC[C@H](NC(=O)[C@H](CC(C)C)NC(=O)NNC(=O)[C@H](Cc1ccccc1)NC(=O)[C@H](CO)NC(=O)[C@H](CC(N)=O)NC(=O)CCc1cccnc1)C(=O)N[C@@H](Cc1ccccc1)C(N)=O [Compound No. 322, 3-Pyridylpropionyl-Asn-Ser-Phe-AzaGly-Leu-Arg(Me)-Phe-NH2] ({Propanoyl(3-(3-pyridyl))}-NSF[azaGly]L[Arg(Me)]F-NH2) | – | significant tumor growth inhibition activity in a 1/10 dose (2.4 nmol/day/mouse×14 days) of Metastin from Days 6 to 8 | significant tumor growth inhibition activity from Days 6 to 11 | – | increase in the blood glucose level | increase in the blood glucagon level | 1.57 | 7.19e-08 | significant tumor growth inhibition activity even when compared with the Metastin group | 54
